# According to paper PMC6001238, “Iterative Chemical Engineering of Vancomycin Leads to Novel Vancomycin Analogs With a High in Vitro Therapeutic Index” (Frontiers in Microbiology, 2018):
# Read-outs that look alike come from different tables or passages of the source.
# Columns and labels:
# [1] = tested on: E. faecalis VRE 53; assay: MIC, broth microdilution, vancomycin-resistant E. faecalis VRE 53 (VanA); format: cell-based, Enterococcus faecalis
# Procedure, shortened: (§1)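 Assayed by broth microdilution under CLSI antimicrobial testing rules. One case paired the analog or control drug with vancomycin at a 10 μM final concentration; water and inoculum-free broth were controls.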
# [2] = tested on: S. aureus VRSA; assay: MIC, broth microdilution, vancomycin-resistant S. aureus (VRSA); format: cell-based, Staphylococcus aureus
# Procedure, shortened: as §1
# [3] = tested on: E. faecalis VSE 1; assay: MIC, broth microdilution, vancomycin-sensitive E. faecalis (VSE 1); format: cell-based, Enterococcus faecalis
# Procedure, shortened: as §1
# [4] = tested on: human cervix carcinoma (HeLa) cells; assay: Cytostatic activity, HeLa cell proliferation; format: cell-based; conditions: mean ± SD of three experiments; highest concentration tested 250 µM; 4 days; read-out: Toxicity (IC50) HeLa
# Procedure, shortened: (§2)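 Readout: Coulter cell number after drug exposure at 37°C. Durations differ by line (L1210 2 days; CEM 3 days; HeLa 4 days). Stock suspension 300,000–500,000 cells/mL, diluted by mixing with compound. Endpoint: IC50 vs negative control.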
# [5] = tested on: VE 150 (VanB); assay: MIC, VanB-type VRE strain VE 150; format: cell-based, Enterococcus; conditions: VE 150, VanB; read-out: MIC
# Method: (§3) The minimum inhibitory concentration (MIC) was determined using the broth microdilution method according to the antimicrobial susceptibility testing standards of the clinical and laboratory standards institute ([Clinical and Laboratory Standards Institute [CLSI], 2012]). Ultrapure water and non-inoculated broth were used as controls. In one case, a final concentration of 10 μM vancomycin was included with the vancomycin analog or control antibiotic.
# [6] = tested on: VE 157 (VanB); assay: MIC, VanB-type VRE strain VE 157; format: cell-based, Enterococcus; conditions: VE 157, VanB; read-out: MIC
# Method: as §3
# [7] = tested on: VE 152 (VanB); assay: MIC, VanB-type VRE strain VE 152; format: cell-based, Enterococcus; conditions: VE 152, VanB; read-out: MIC
# Method: as §3
# [8] = tested on: MRSA KS89; assay: MIC, broth microdilution, MRSA KS89; format: cell-based, Staphylococcus aureus
# Procedure, shortened: as §1
# [9] = tested on: L1210, CEM and HeLa cell lines; assay: Cytostatic activity, average or summary over L1210, CEM and HeLa; format: cell-based
# Procedure, shortened: as §2
# [10] = tested on: Clostridium difficile AIU ribotype 027; assay: MIC, plate drop assay, C. difficile AIU ribotype 027; format: cell-based; conditions: for MIC-fold improvement vs. vancomycin: C. difficile AIU ribotype 027
# Procedure, shortened: (§4)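 Twofold dilution series of test compounds were spotted onto C. difficile lawns in 0.4% BHI agar containing added calcium and magnesium salts. After overnight anaerobic incubation at 37°C, growth inhibition was scored by spot clearing; triplicate runs, ultrapure water negative control.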
# [11] = tested on: 24 clinical MRSA isolates; assay: MIC against a set of 24 clinical MRSA isolates (range, MIC50, TI); format: cell-based, Staphylococcus aureus
# Method: as §3
# [12] = tested on: MRSA KS6; assay: MIC, broth microdilution, MRSA KS6; format: cell-based, Staphylococcus aureus
# Procedure, shortened: as §1
# [13] = tested on: MRSA; assay: Minimum bactericidal concentration against MRSA; format: cell-based, Staphylococcus aureus
# Method: Plates were incubated overnight at 37°C and colony growth was inspected.
# [14] = tested on: E. faecalis VRE 37; assay: MIC, broth microdilution, vancomycin-resistant E. faecalis VRE 37 (VanA); format: cell-based, Enterococcus faecalis
# Procedure, shortened: as §1
# [15] = tested on: VE 82 (VanC1); assay: MIC, VanC1-type VRE strain VE 82; format: cell-based, Enterococcus gallinarum; conditions: VE 82, VanC1; read-out: MIC
# Method: as §3
# [16] = tested on: 33 clinical VRE isolates; assay: MIC against a set of 33 clinical VRE isolates (range, MIC50, TI); format: cell-based, Enterococcus faecalis
# Method: as §3
# [17] = tested on: VE 148 (VanB); assay: MIC, VanB-type VRE strain VE 148; format: cell-based, Enterococcus; conditions: VE 148, VanB; read-out: MIC
# Method: as §3
# [18] = tested on: human T-lymphocyte (CEM) cells; assay: Cytostatic activity, CEM cell proliferation; format: cell-based; conditions: mean ± SD of three experiments; highest concentration tested 250 µM; 3 days; read-out: Toxicity (IC50) CEM
# Procedure, shortened: as §2
# [19] = tested on: MRSA KS1; assay: MIC, broth microdilution, MRSA KS1; format: cell-based, Staphylococcus aureus
# Procedure, shortened: as §1
# [20] = tested on: VE 149 (VanB); assay: MIC, VanB-type VRE strain VE 149; format: cell-based, Enterococcus; conditions: VE 149, VanB; read-out: MIC
# Method: as §3
# [21] = tested on: MRSA KS2; assay: MIC, broth microdilution, MRSA KS2; format: cell-based, Staphylococcus aureus
# Procedure, shortened: as §1
# [22] = tested on: S. aureus VISA/HIP5827; assay: MIC, broth microdilution, vancomycin-intermediate S. aureus VISA HIP5827; format: cell-based, Staphylococcus aureus
# Procedure, shortened: as §1
# [23] = tested on: E. faecalis VRE 29; assay: MIC, broth microdilution, vancomycin-resistant E. faecalis VRE 29 (VanA); format: cell-based, Enterococcus faecalis
# Procedure, shortened: as §1
# [24] = tested on: E. faecalis VRE 6; assay: MIC, broth microdilution, vancomycin-resistant E. faecalis VRE 6 (VanA); format: cell-based, Enterococcus faecalis
# Procedure, shortened: as §1
# [25] = tested on: S. aureus VSSA (ATCC 6538); assay: MIC, broth microdilution, vancomycin-sensitive S. aureus (VSSA/MSSA, ATCC 6538); format: cell-based, Staphylococcus aureus
# Procedure, shortened: as §1
# [26] = tested on: Murine leukemia (L1210) cells; assay: Cytostatic activity, L1210 cell proliferation; format: cell-based; conditions: mean ± SD of three experiments; highest concentration tested 250 µM; 2 days; read-out: Toxicity (IC50) L1210
# Procedure, shortened: as §2
# [27] = tested on: Clostridium difficile ATJ ribotype 014/20; assay: MIC, plate drop assay, C. difficile ATJ ribotype 014/20; format: cell-based; conditions: for MIC-fold improvement vs. vancomycin: C. difficile ATJ ribotype 014/20
# Procedure, shortened: as §4
structure (smiles),measurement,setting,value
CNC(CC(C)C)C(=O)NC1C(=O)NC(CC(N)=O)C(=O)NC2C(=O)NC3C(=O)NC(C(=O)NC(C(=O)NCCCNC(=O)c4ccc5cc(NS(=O)(=O)c6ccc(C(C)C)cc6)ccc5c4)c4cc(O)cc(O)c4-c4cc3ccc4O)C(O)c3ccc(c(Cl)c3)Oc3cc2cc(c3OC2OC(CO)C(O)C(O)C2OC2CC(C)(N)C(O)C(C)O2)Oc2ccc(cc2Cl)C1O (stereo not drawn) [Vanc-66],MIC,"[1]; Enterococcus faecalis VRE 53 (vancomycin-resistant), read-out: MIC",25 µM
same,MIC-fold improvement vs. vancomycin,"[1]; VRE 53, ratio of MIC of vancomycin and MIC of analogue",16
same,MIC,"[2]; Staphylococcus aureus VRSA, read-out: MIC",0.39 µM
same,MIC-fold improvement vs. vancomycin,"[2]; VRSA, ratio of MIC of vancomycin and MIC of analogue",256
same,MIC,"[3]; Enterococcus faecalis VSE 1 (vancomycin-sensitive), read-out: MIC",0.39 µM
same,MIC-fold improvement vs. vancomycin,"[3]; VSE 1, ratio of MIC of vancomycin and MIC of analogue",4
same,IC50,[4],78 ± 49 µM
same,MIC,[5],0.78 µM
same,MIC,[6],0.78 µM
same,MIC,[7],0.78 µM
same,MIC-fold improvement vs. vancomycin,"[8]; MRSA KS8, ratio of MIC of vancomycin and MIC of analogue",2
same,MIC,"[8]; Staphylococcus aureus MRSA KS8, read-out: MIC",0.39 µM
same,IC50,"[9]; average IC50 used for TI in Table S5, >250 entered as 250, read-out: IC50",190 µM
same,IC50,"[9]; average of L1210, CEM and HeLa, read-out: Toxicity (IC50) Average",190 µM
same,MIC-fold improvement vs. vancomycin,[10],≤ 58
same,MIC,"[10]; C. difficile AIU ribotype 027, plate drop assay",0.78 µM
same,MIC-fold improvement vs. vancomycin,[10]; listed as Vanc- 66,58
same,MIC Range,[11]; 24 clinical MRSA isolates,0.20 to 3.13 µM
same,TI (IC50/MIC50),"[11]; in vitro therapeutic index, MRSA",238
same,MIC50,"[11]; median MIC, 24 clinical MRSA isolates, read-out: MIC50",0.78 µM
same,MIC-fold improvement vs. vancomycin,"[12]; MRSA KS6, ratio of MIC of vancomycin and MIC of analogue",4
same,MIC,"[12]; Staphylococcus aureus MRSA KS6, read-out: MIC",0.20 µM
same,MBC relative to MIC,[13],MBC equaling their MIC values
same,MIC,"[14]; Enterococcus faecalis VRE 37 (vancomycin-resistant), read-out: MIC",3.13 µM
same,MIC-fold improvement vs. vancomycin,"[14]; VRE 37, ratio of MIC of vancomycin and MIC of analogue",128
same,MIC,[15],0.78 µM
same,MIC Range,[16]; 33 clinical VRE isolates,1.56 to 12.5 µM
same,TI (IC50/MIC50),"[16]; in vitro therapeutic index, VRE",61
same,MIC50,"[16]; median MIC, 33 clinical VRE isolates, read-out: MIC50",3.13 µM
same,MIC,[17],1.56 µM
same,IC50,[18],243 ± 10 µM
same,MIC-fold improvement vs. vancomycin,"[19]; MRSA KS1, ratio of MIC of vancomycin and MIC of analogue",1
same,MIC,"[19]; Staphylococcus aureus MRSA KS1, read-out: MIC",0.78 µM
same,MIC,[20],0.78 µM
same,MIC-fold improvement vs. vancomycin,"[21]; MRSA KS2, ratio of MIC of vancomycin and MIC of analogue",2
same,MIC,"[21]; Staphylococcus aureus MRSA KS2, read-out: MIC",0.39 µM
same,MIC,"[22]; Staphylococcus aureus VISA/HIP5827, read-out: MIC",0.78 µM
same,MIC-fold improvement vs. vancomycin,"[22]; VISA/HIP5827, ratio of MIC of vancomycin and MIC of analogue",8
same,MIC,"[23]; Enterococcus faecalis VRE 29 (vancomycin-resistant), read-out: MIC",3.13 µM
same,MIC-fold improvement vs. vancomycin,"[23]; VRE 29, ratio of MIC of vancomycin and MIC of analogue",128
same,MIC,"[24]; Enterococcus faecalis VRE 6 (vancomycin-resistant), read-out: MIC",1.56 µM
same,MIC-fold improvement vs. vancomycin,"[24]; VRE 6, ratio of MIC of vancomycin and MIC of analogue",128
same,MIC,"[25]; Staphylococcus aureus VSSA, read-out: MIC",0.78 µM
same,MIC-fold improvement vs. vancomycin,"[25]; VSSA, ratio of MIC of vancomycin and MIC of analogue",1
same,IC50,[26],> 250 µM
same,MIC-fold improvement vs. vancomycin,[27],up to 45
same,MIC,"[27]; C. difficile ATJ ribotype 014/20, plate drop assay",0.78 µM
same,MIC-fold improvement vs. vancomycin,[27]; listed as Vanc- 66,45
